Read-outs that look alike come from different tables or passages of the source.
Experiments:
IRAK4 enzyme = IRAK4 enzyme (Homo sapiens (Human), UniProt Q9NWZ3); experiment: biochemical; assay type: biochemical
TNFα = experiment: cells; assay type: cell-based, human; details: read-out: EC50 TNF
[1] = IRAK4 enzyme, TR-FRET, 500 μM ATP
[2] = Homo sapiens, Monocyte, LPS-stimulated human monocytes, TNFα content
[3] = IRAK4 enzyme, TR-FRET (HTRF), 500 μM ATP
[4] = Homo sapiens, Monocyte, LPS-stimulated human monocytes, TNFα by TR-FRET

IRAK4 enzyme, sequence (Q9NWZ3 whole entry): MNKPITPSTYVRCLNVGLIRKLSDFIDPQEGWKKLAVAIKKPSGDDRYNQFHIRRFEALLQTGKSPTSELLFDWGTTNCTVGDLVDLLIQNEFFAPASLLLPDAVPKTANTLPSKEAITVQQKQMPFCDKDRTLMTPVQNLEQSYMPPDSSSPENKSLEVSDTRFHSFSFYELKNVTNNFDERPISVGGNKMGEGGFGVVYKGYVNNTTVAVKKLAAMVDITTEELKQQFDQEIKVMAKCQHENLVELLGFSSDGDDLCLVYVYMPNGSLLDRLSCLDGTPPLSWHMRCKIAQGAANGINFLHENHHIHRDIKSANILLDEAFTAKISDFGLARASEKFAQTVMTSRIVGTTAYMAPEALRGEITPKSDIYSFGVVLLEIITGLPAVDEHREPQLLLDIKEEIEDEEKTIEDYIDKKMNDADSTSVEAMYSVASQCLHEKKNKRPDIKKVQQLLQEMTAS

CC(C)(O)[C@H](F)CNC(=O)c1cnc(-c2ccc3cc(C#N)cnn23)cc1N[C@@H]1CCN(S(C)(=O)=O)C1 [Example 53, 6-(3-cyanopyrrolo[1,2-b]pyridazin-7-yl)-N-((R)-2-fluoro-3-hydroxy-3-methylbutyl)-4-(((R)-1-(methylsulfonyl)pyrrolidin-3-yl)amino)nicotinamide]
IC50 (IRAK4 enzyme; [1]): < 1 nM
EC50 (TNFα; [2]): 65 nM

CC(C)(O)[C@H](F)CNC(=O)c1cnc(-c2ccc3cc(C#N)cnn23)cc1N[C@H]1C[C@H](CNC(=O)[C@@H]2CC2(F)F)C1 [Example 699, 6-(3-cyanopyrrolo[1,2-b]pyridazin-7-yl)-4-(((1S,3R)-3-(((S)-2,2-difluorocyclopropane-1-carboxamido)methyl)cyclo-butyl)amino)-N-((R)-2-fluoro-3-hydroxy-3-methylbutyl)nicotinamide]
IC50 (IRAK4 enzyme; [3]): < 1 nM
EC50 (TNFα; [2]): 36 nM

CC(C)(O)[C@H](F)CNC(=O)c1cnc(-c2ccc3cc(C#N)cnn23)cc1NCCC(C)(N)C(F)(F)F (stereo partly drawn) [Example 562, 4-((3-amino-4,4,4-trifluoro-3-methylbutyl)amino)-6-(3-cyanopyrrolo[1,2-b]pyridazin-7-yl)-N-((R)-2-fluoro-3-hydroxy-3-methylbutyl)nicotinamide]
IC50 (IRAK4 enzyme; [3]): 1 nM
EC50 (TNFα; [2]): 75 nM

CC(=O)Nc1cncc(NC(=O)c2cnc(-c3ccc4cc(C#N)cnn34)cc2NC(C)C)c1 [Example 491, N-(5-acetamidopyridin-3-yl)-6-(3-cyanopyrrolo[1,2-b]pyridazin-7-yl)-4-(isopropylamino) nicotinamide]
IC50 (IRAK4 enzyme; [3]): 19 nM
EC50 (TNFα; [2]): 219 nM

CNC(=O)O[C@@H]1CCC[C@H](Nc2cc(-c3ccc4cc(C#N)cnn34)ncc2C(=O)NC[C@@H](F)C(C)(C)O)C1 [Example 748, (1R,3S)-3-((2-(3-cyano-pyrrolo[1,2-b]pyridazin-7-yl)-5-(((R)-2-fluoro-3-hydroxy-3-methylbutyl)carbamoyl)pyridin-4-yl)amino)cyclohexyl methylcarbamate]
IC50 (IRAK4 enzyme; [3]): < 1 nM
EC50 (TNFα; [2]): 38 nM

CC(C)(O)[C@H](F)CNC(=O)c1cnc(-c2ccc3cc(C#N)cnn23)cc1Nc1ccc(CN2CCCC2=O)cc1 [Example 200, (R)-6-(3-cyanopyrrolo[1,2-b]pyridazin-7-yl)-N-(2-fluoro-3-hydroxy-3-methylbutyl)-4-((4-((2-oxopyrrolidin-1-yl)methyl)phenyl)amino) nicotinamide]
IC50 (IRAK4 enzyme; [1]): 1 nM
EC50 (TNFα; [2]): 15 nM

COC[C@@H]1CCN(c2ccc(Nc3cc(-c4ccc5cc(C#N)cnn45)ncc3C(=O)NC[C@@H](F)C(C)(C)O)cn2)C1 [Example 885, 6-(3-cyanopyrrolo[1,2-b]pyridazin-7-yl)-N-((R)-2-fluoro-3-hydroxy-3-methylbutyl)-4-((6-((R)-3-(methoxymethyl)pyrrolidin-1-yl)pyridin-3-yl)amino) nicotinamide]
IC50 (IRAK4 enzyme; [1]): 1 nM
EC50 (TNFα; [4]): 70 nM

COC(=O)NCC1(O)CC(Nc2cc(-c3ccc4cc(C#N)cnn34)ncc2C(=O)NC[C@@H](F)C(C)(C)O)C1 (single isomer, unassigned) [Example 760]
IC50 (IRAK4 enzyme; [3]): < 1 nM
EC50 (TNFα; LPS-stimulated human monocytes, TNFα content): 33 nM

CC(=O)NC12CC(Nc3cc(-c4ccc5cc(C#N)cnn45)ncc3C(=O)NCC#N)(C1)C2 [Example 496, 4-((3-acetamidobicyclo[1.1.1]pentan-1-yl)amino)-N-(cyanomethyl)-6-(3-cyanopyrrolo[1,2-b]pyridazin-7-yl)nicotinamide]
IC50 (IRAK4 enzyme; [3]): < 1 nM
EC50 (TNFα; [2]): 42 nM

CNC(=O)c1cnc(-c2ccc3cc(C#N)cnn23)cc1NC12CCC(C(=O)NC)(CC1)C2 [Example 468, 6-(3-cyanopyrrolo[1,2-b]pyridazin-7-yl)-N-methyl-4-((4-(methylcarbamoyl)bicyclo[2.2.1]heptan-1-yl)amino)nicotinamide]
IC50 (IRAK4 enzyme; [3]): 1 nM
EC50 (TNFα; [2]): 112 nM

N#Cc1cnn2c(-c3cc(NC45CCC(O)(CC4)CC5)c(C(=O)NCc4ccccn4)cn3)ccc2c1 [Example 930, 6-(3-cyanopyrrolo[1,2-b]pyridazin-7-yl)-4-((4-hydroxybicyclo[2.2.2]octan-1-yl)amino)-N-(pyridin-2-ylmethyl)nicotinamide]
IC50 (IRAK4 enzyme; [1]): 2 nM
EC50 (TNFα; [4]): 147 nM

CC(C)Nc1cc(-c2ccc3cc(C#N)cnn23)ncc1C(=O)NCCC(O)C(F)(F)F (stereo not shown) [Example 712, 6-(3-cyanopyrrolo[1,2-b]pyridazin-7-yl)-4-(isopropyl-amino)-N-(4,4,4-trifluoro-3-hydroxybutyl)nicotinamide]
IC50 (IRAK4 enzyme; [3]): < 1 nM
EC50 (TNFα; [2]): 47 nM

COCCNC(=O)C12CCC(Nc3cc(-c4ccc5cc(C#N)cnn45)ncc3C(=O)NC[C@@H](F)C(C)(C)O)(CC1)CC2 [Example 397, (R)-6-(3-cyanopyrrolo[1,2-b]pyridazin-7-yl)-N-(2-fluoro-3-hydroxy-3-methylbutyl)-4-((4-((2-methoxyethyl)carbamoyl)bicyclo[2.2.2]octan-1-yl)amino)nicotinamide]
IC50 (IRAK4 enzyme; [3]): 1 nM
EC50 (TNFα; [2]): 30 nM

CC(C)C(=O)N[C@H]1CC[C@H](Nc2cc(-c3ccc4cc(C#N)cnn34)ncc2C(=O)NC[C@@H](F)C(C)(C)O)CC1 [Example 298, 6-(3-cyanopyrrolo[1,2-b]pyridazin-7-yl)-N-((R)-2-fluoro-3-hydroxy-3-methylbutyl)-4-(((1r,4R)-4-isobutyramidocyclohexyl)amino)nicotinamide]
IC50 (IRAK4 enzyme; [1]): 2 nM
EC50 (TNFα; [2]): 214 nM

CC1(C)CC1CNC(=O)c1cnc(-c2ccc3cc(C#N)cnn23)cc1NC12CCC(O)(CC1)CC2 (stereo not shown) [Example 924, 6-(3-cyanopyrrolo[1,2-b]pyridazin-7-yl)-N-((2,2-dimethylcyclopropyl)methyl)-4-((4-hydroxy-bicyclo[2.2.2]octan-1-yl)amino)nicotinamide]
IC50 (IRAK4 enzyme; [1]): 1 nM
EC50 (TNFα; [4]): 119 nM

COC(=O)N1CC[C@H](Nc2cc(-c3ccc4cc(C#N)cnn34)ncc2C(=O)NC[C@@H](F)C(C)(C)O)C1 [Example 751, (S)-methyl 3-((2-(3-cyano-pyrrolo[1,2-b]pyridazin-7-yl)-5-(((R)-2-fluoro-3-hydroxy-3-methylbutyl)carbamoyl)pyridin-4-yl)amino)pyrrolidine-1-carboxylate]
IC50 (IRAK4 enzyme; [3]): 4 nM
EC50 (TNFα; [2]): 333 nM

CC(C)(O)[C@H](F)CNC(=O)c1cnc(-c2ccc3cc(C#N)cnn23)cc1Nc1cccc(C(N)=O)c1 [Example 383, (R)-4-((3-carbamoyl-phenyl)amino)-6-(3-cyanopyrrolo[1,2-b]pyridazin-7-yl)-N-(2-fluoro-3-hydroxy-3-methylbutyl)nicotinamide]
IC50 (IRAK4 enzyme; [1]): < 1 nM
EC50 (TNFα; [2]): 144 nM

CC(C)(O)[C@H](F)CNC(=O)c1cnc(-c2ccc3cc(C#N)cnn23)cc1N[C@]1(C)C[C@@H](O)C1 [Example 429, 6-(3-cyanopyrrolo[1,2-b]pyridazin-7-yl)-N-((R)-2-fluoro-3-hydroxy-3-methylbutyl)-4-(((1r,3R)-3-hydroxy-1-methylcyclo-butyl)amino)nicotinamide]
IC50 (IRAK4 enzyme; [3]): 1 nM
EC50 (TNFα; [2]): 36 nM

CC(C)(O)[C@H](F)CNC(=O)c1cnc(-c2ccc3cc(C#N)cnn23)cc1Nc1nnc(Cc2ccccc2)o1 [Example 336, (R)-4-((5-benzyl-1,3,4-oxadiazol-2-yl)amino)-6-(3-cyanopyrrolo[1,2-b]pyridazin-7-yl)-N-(2-fluoro-3-hydroxy-3-methyl-butyl)nicotinamide]
IC50 (IRAK4 enzyme; [1]): 5 nM
EC50 (TNFα; [2]): 522 nM

CNC(=O)c1cnc(-c2ccc3cc(C#N)cnn23)cc1N[C@@H]1CC[C@@H](C(=O)NC)C1 [Example 466, 6-(3-cyanopyrrolo[1,2-b]pyridazin-7-yl)-N-methyl-4-(((1R,3R)-3-(methyl-carbamoyl)cyclopentyl)amino)nicotinamide]
IC50 (IRAK4 enzyme; [3]): 8 nM
EC50 (TNFα; [2]): 259 nM

CC(C)(O)[C@H](F)CNC(=O)c1cnc(-c2ccc3cc(C#N)cnn23)cc1N[C@H]1CC[C@H](c2nnco2)CC1 [Example 637, 4-(((1r,4R)-4-(1,3,4-oxadiazol-2-yl)cyclohexyl)amino)-6-(3-cyano-pyrrolo[1,2-b]pyridazin-7-yl)-N-((R)-2-fluoro-3-hydroxy-3-methylbutyl) nicotinamide]
IC50 (IRAK4 enzyme; [3]): < 1 nM
EC50 (TNFα; [2]): 21 nM

CC(C)(O)[C@H](F)CNC(=O)c1cnc(-c2ccc3cc(C#N)cnn23)cc1Nc1ccc(-n2ccccc2=O)cc1 [Example 385, (R)-6-(3-cyanopyrrolo[1,2-b]pyridazin-7-yl)-N-(2-fluoro-3-hydroxy-3-methylbutyl)-4-((4-(2-oxopyridin-1(2H)-yl)phenyl)amino)nicotinamide]
IC50 (IRAK4 enzyme; [1]): < 1 nM
EC50 (TNFα; [2]): 36 nM

CC(C)(O)[C@H](F)CNC(=O)c1cnc(-c2ccc3cc(C#N)cnn23)cc1Nc1ccc(-c2cnoc2)nc1 [Example 967, (R)-6-(3-cyanopyrrolo[1,2-b]pyridazin-7-yl)-N-(2-fluoro-3-hydroxy-3-methylbutyl)-4-((6-(isoxazol-4-yl)pyridin-3-yl)amino) nicotinamide]
IC50 (IRAK4 enzyme; [1]): 3 nM
EC50 (TNFα; [4]): 156 nM

CC(=O)N[C@H]1CC[C@H](Nc2cc(-c3ccc4cc(C#N)cnn34)ncc2C(=O)NC[C@@H](F)C(C)(C)O)CC1 [Example 326, 4-(((1r,4R)-4-acetamidocyclohexyl)amino)-6-(3-cyanopyrrolo[1,2-b]pyridazin-7-yl)-N-((R)-2-fluoro-3-hydroxy-3-methylbutyl)nicotinamide]
IC50 (IRAK4 enzyme): < 1 nM
EC50 (TNFα; Homo sapiens, Monocyte): 56 nM

N#Cc1cnn2c(-c3cc(N[C@H]4CCC[C@@H](O)C4)c(C(=O)NCC4(C#N)CC4)cn3)ccc2c1 [Example 428, N-((1-cyanocyclopropyl)methyl)-6-(3-cyano-pyrrolo[1,2-b]pyridazin-7-yl)-4-(((1S,3R)-3-hydroxycyclohexyl)amino)nicotinamide]
IC50 (IRAK4 enzyme; [3]): 63 nM
EC50 (TNFα; [2]): 4270 nM

CC(C)(O)[C@H](F)CNC(=O)c1cnc(-c2ccc3cc(C#N)cnn23)cc1Nc1ccc(-c2cocn2)cc1 [Example 628, (R)-6-(3-cyanopyrrolo[1,2-b]pyridazin-7-yl)-N-(2-fluoro-3-hydroxy-3-methyl-butyl)-4-((4-(oxazol-4-yl)phenyl)amino) nicotinamide]
IC50 (IRAK4 enzyme; [3]): < 1 nM
EC50 (TNFα; [2]): 26 nM
